Patent US6881841B2, “Dibenzosuberanyl piperazine derivatives and drug-resistance overcoming agents containing the derivatives” (priority 2000, dated 2005)

What was measured:
[1] = tested on: Chloroquine-resistant malaria plasmodium Plasmodium chabaudi (AS strain: chloroquine-resistant (3CQ)); test: Test 1: resistance overcoming effect, in vivo test with chloroquine-resistant mouse malaria strain; settings: ICR male mice, days 0-3, counted on 5th day; for number of PRBCs per 10,000 red blood cells, Chloroquine 0 mg: test compound 50 mg/kg i.p. + chloroquine 0 mg/kg i.p.; for number of PRBCs per 10,000 red blood cells, Chloroquine 2 mg: test compound 50 mg/kg i.p. + chloroquine 2 mg/kg i.p.; for number of PRBCs per 10,000 red blood cells, Chloroquine 2 mg / number of PRBCs per 10,000 red blood cells, Chloroquine 3 mg: Control = chloroquine only; for number of PRBCs per 10,000 red blood cells, Chloroquine 3 mg: test compound 50 mg/kg i.p. + chloroquine 3 mg/kg i.p.
Experimental: With respect to Compounds 1 to 7, these invention compounds were tested for their resistance overcoming effect in an in vivo test making use of a chloroquine-resistant mouse malaria strain. The test was conducted following the following procedure.
Chloroquine-resistant malaria plasmodium Plasmodlium chabaudi (AS strain: chloroquine-resistant (3CQ)); and
Mice: ICR male mice of 4-5 weeks old (20 to 25 g)
(§1) • 1) Preparation of the compounds: Each test compound was dissolved beforehand in 1/10 volume of DMSO such that the dose of the compound to each mouse per administration would become a final concentration of 50 mg/kg/0.2 mL. The resulting solution was diluted with 0.85% physiological saline to provide a 10% DMSO suspension. • 2) Inoculation with the chloroquine-resistant malaria plasmodium, Plasmodium chabaudi (AS strain: chloroquine-resistant (3CQ): Parasitized red blood cells (PRBCs) (5×10^6 (the 6th power of 10) cells/0.2 mL) were also prepared with 0.85% physiological saline, and inoculated through the caudal vein of each mouse with a 26×½-gauge tuberculin needle. • 3) Administration of the compounds and chloroquine: Two hours after the inoculation with the plasmodium, each test compound (50 mg/kg/0.2 mL) was intraperitoneally administered with 21×½-gauge needles to three groups of mice per compound. Chloroquine solutions of three concentrations, which had been prepared with 0.85% physiological saline to give final concentrations of 0 mg/kg/0.1 mL, 2 mg/kg/0.1 mL and 3 mg/kg/0.1 mL, respectively, were then also administered intraperitoneally with 26×½-gauge tuberculin needles to the three groups of mice which had been administered with the compound. To three control groups, the three chloroquine solutions were only administered, respectively. The compound and chloroquine were administered four times in total, that is, on the 0th, 1st, 2nd and 3rd days after the inoculation with the plasmodium. • 4) Determination of effect: Every day after the inoculation with the plasmodium, the tail of each mouse was cut to a minimum at the tip thereof with scissors to cause bleeding, and a Giemsa staining specimen smeared with a thin film of the blood was prepared. On the 5th day, the number of PRBCs per 10,000 red blood cells was counted, and based on a comparison of the PRBC number with the corresponding number of the group administered only with chloroquine, the chloroquine resistance overcoming effect of the test compound was determined.

[2] = tested on: Chloroquine-resistant malaria plasmodium Plasmodium chabaudi (AS strain: chloroquine-resistant (3CQ)); test: Test 2: resistance overcoming effect of Compound 8, as Test 1 but determined on the fourth day; assay type: in vivo; settings: for number of PRBCs per 10,000 red blood cells, Chloroquine 2 mg: test compound 50 mg/kg i.p. + chloroquine 2 mg/kg i.p.; for number of PRBCs per 10,000 red blood cells, Chloroquine 2 mg / number of PRBCs per 10,000 red blood cells, Chloroquine 3 mg: Control = chloroquine only; for number of PRBCs per 10,000 red blood cells, Chloroquine 3 mg: test compound 50 mg/kg i.p. + chloroquine 3 mg/kg i.p.
Experimental: as §1
Resistance overcoming effect of Compound 8 was tested in a similar manner as in Test 1. The time of determination of the effect was set on the fourth day.

[3] = ICR male mice, days 0-3, determined on fourth day

OCC#CCN1CCN(C2c3ccccc3CCc3ccccc32)CC1
melting point: 129 °C

C=CCCCCCCC(O)CN1CCN(C2c3ccccc3CCc3ccccc32)CC1 (centres unmarked) [Compound 1, 1-Dibenzosuberanyl-4-(2-hydroxydecan-9-en-1-yl)piperazine]
number of PRBCs per 10,000 red blood cells, Chloroquine 0 mg [1]: 4250 per 10,000 red blood cells | number of PRBCs per 10,000 red blood cells, Chloroquine 2 mg [1]: 3100 per 10,000 red blood cells | number of PRBCs per 10,000 red blood cells, Chloroquine 3 mg [1]: 280 per 10,000 red blood cells

C=CCCCCC(O)CN1CCN(C2c3ccccc3CCc3ccccc32)CC1 (centres unmarked) [Compound 2, 1-Dibenzosuberanyl-4-(2-hydroxy-7-octenyl)-piperazine]
number of PRBCs per 10,000 red blood cells, Chloroquine 0 mg [1]: 8450 per 10,000 red blood cells | number of PRBCs per 10,000 red blood cells, Chloroquine 2 mg [1]: 0 per 10,000 red blood cells | number of PRBCs per 10,000 red blood cells, Chloroquine 3 mg [1]: 0 per 10,000 red blood cells

C=CCCC(O)CN1CCN(C2c3ccccc3CCc3ccccc32)CC1 (centres unmarked) [Compound 3, 1-Dibenzosuberanyl-4-(2-hydroxy-5-hexenyl)-piperazine]
number of PRBCs per 10,000 red blood cells, Chloroquine 0 mg [1]: 4500 per 10,000 red blood cells | number of PRBCs per 10,000 red blood cells, Chloroquine 3 mg [1]: 292 per 10,000 red blood cells

C=CC(O)CN1CCN(C2c3ccccc3CCc3ccccc32)CC1 (centres unmarked) [Compound 4, 1-Dibenzosuberanyl-4-(2-hydroxy-3-butenyl)-piperazine]
number of PRBCs per 10,000 red blood cells, Chloroquine 0 mg [1]: 8000 per 10,000 red blood cells | number of PRBCs per 10,000 red blood cells, Chloroquine 2 mg [1]: 430 per 10,000 red blood cells | number of PRBCs per 10,000 red blood cells, Chloroquine 3 mg [1]: 0 per 10,000 red blood cells | melting point: 93 °C

C=CC(CO)N1CCN(C2c3ccccc3CCc3ccccc32)CC1 (centres unmarked) [Compound 5, 1-Dibenzosuberanyl-4-(1-hydroxybutan-3-en-2-yl)piperazine]
number of PRBCs per 10,000 red blood cells, Chloroquine 3 mg [1]: 0 per 10,000 red blood cells | melting point: 123 °C

CCCCCCCCC(O)CN1CCN(C2c3ccccc3CCc3ccccc32)CC1 (centres unmarked) [Compound 8, 1-Dibenzosuberanyl-4-(2-hydroxydecanyl)piperazine]
number of PRBCs per 10,000 red blood cells, Chloroquine 0 mg ([2]; ICR male mice, test compound 50 mg/kg i.p. + chloroquine 0 mg/kg i.p., days 0-3, determined on fourth day): 7475 per 10,000 red blood cells | number of PRBCs per 10,000 red blood cells, Chloroquine 2 mg [2, 3]: 4875 per 10,000 red blood cells | number of PRBCs per 10,000 red blood cells, Chloroquine 3 mg [2, 3]: 3025 per 10,000 red blood cells | chloroquine resistance overcoming effect (in words) ([2]; conclusion from Table 2): overcoming of chloroquine resistance

CCN(CC)CCCC(C)Nc1ccnc2cc(Cl)ccc12 (centres unmarked) [Control, chloroquine, reference compound]
number of PRBCs per 10,000 red blood cells, Chloroquine 2 mg [1]: 4900 per 10,000 red blood cells | number of PRBCs per 10,000 red blood cells, Chloroquine 3 mg [1]: 3750 per 10,000 red blood cells | number of PRBCs per 10,000 red blood cells, Chloroquine 2 mg [2, 3]: 4525 per 10,000 red blood cells | number of PRBCs per 10,000 red blood cells, Chloroquine 3 mg [2, 3]: 3600 per 10,000 red blood cells
